Measured values: PubChem BioAssay AID463199 (Broad Institute, 2010)
Activity calls are given as the source filed them.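 How the source made its calls: active means AC50, the dose giving half-maximal effect, exceeds a fixed cutoff for a compound that rescues yeast growth under heat; inactive means the rest, inconclusive results apart.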

These molecules were tested on S. cerevisiae Burl-1 ts mutant growth, BacTiter-Glo, 38.5C 24 h (assay: growth induction of Burl-1 ts yeast mutant, dose response, counter-screen for SUMOylation pathway inhibitor project, whole organism, S. cerevisiae, luminescence (AID 463199)).
`O=c1c2ccccc2c2ccccc2c(=O)n1-c1ccccc1` was tested, and the AC50 was > 42 µM (inactive).
`CCOc1c(P(=S)(N(C)C)N(C)C)c(C)nn1-c1ccccc1` was tested, and the AC50 was > 42 µM (inactive).
For `COc1ccc(NC2CCCN(C(=O)c3csc(C)n3)C2)cc1` (centres undefined), the AC50 was > 42 µM (inactive).
In the case of `O=C(CC(c1ccccc1)c1ccccc1O)NCCN1CCOCC1` (centres undefined), the AC50 is reported as > 42 µM (inactive).
In the case of `COc1ccc(OCC(=O)O/N=C(\N)Cc2ccc(Cl)cc2)cc1`, the AC50 is reported as > 42 µM (inactive).
`O=C(O)CNS(=O)(=O)Cc1ccccc1` was tested, and the AC50 was > 42 µM (inactive).
`CC(=O)Nc1ccc(/C(C)=N/NC(=O)c2ccncc2)cc1` was tested, and the AC50 was > 42 µM (inactive).
In the case of `COc1ccc(C2CC(c3cccs3)=NN2C(=O)c2ccccc2)cc1OC` (centres undefined), the AC50 is reported as > 42 µM (inactive).
With `O=C(c1cc2ccccc2o1)N1CCCC1` the AC50 was > 42 µM (inactive).
`CC(C)[C@H](NC(=O)C1(c2ccccc2)CCN(C(=O)OC(C)(C)C)CC1)C(=O)O` was tested, and the AC50 was > 42 µM (inactive).
For `CCCCN(C)C(=O)c1cc2c(Cl)nc3ccccc3c2s1`, the AC50 was > 42 µM (inactive).
`O=C(OCCCN=C1NS(=O)(=O)c2ccccc21)c1cccs1` was tested, and the AC50 was > 42 µM (inactive).
`CCOC(=O)c1ccc(NC(=O)c2c(NC(=O)CCC(=O)O)sc3c2CCCCC3)cc1` was tested, and the AC50 was > 42 µM (inactive).
With `CCOc1ccc(NC(=O)C2CC(=O)N3CCCN=C3S2)cc1` (centres undefined) the AC50 was > 42 µM (inactive).
`CN(CC(=O)N1CCc2[nH]c3ccc(F)cc3c2C1)CC1OCCO1` was tested, and the AC50 was > 42 µM (inactive).
In the case of `COc1ccc(-c2[nH]nc3c2C(c2ccncc2)C(C#N)=C(N)O3)cc1` (centres undefined), the AC50 is reported as > 42 µM (inactive).
For `CCCn1c(SC(C)C(=O)NCC2CCCO2)nc2sc(CC)cc2c1=O` (centres undefined), the AC50 was > 42 µM (inactive).
`O=C1CCN(Cc2ccccc2)CCN1CCOc1ccccc1` was tested, and the AC50 was > 42 µM (inactive).
With `Clc1ccc(CSc2nnc(CN3CCOCC3)n2-c2ccccc2)cc1Cl` the AC50 was > 42 µM (inactive).
In the case of `C=C(C)C(=O)OC1(C(F)(F)F)Oc2cc(C)ccc2NC1=O` (centres undefined), the AC50 is reported as > 42 µM (inactive).
With `COc1ccc(-n2c3c(cc(C(=O)NCC(=O)c4ccccc4)c2=O)C(=O)CC(C)(C)C3)cc1` the AC50 was > 42 µM (inactive).
In the case of `CCOC(=O)C1CCN(CC(O)COc2ccc(C(C)(C)C)cc2)CC1` (centres undefined), the AC50 is reported as > 42 µM (inactive).
For `Cc1nc2ccc(NC(=O)c3ccco3)cc2s1`, the AC50 was > 42 µM (inactive).
In the case of `CCOC(=O)C1(Cc2cccc(OC)c2)CCCN(S(=O)(=O)c2cccnc2)C1` (centres undefined), the AC50 is reported as > 42 µM (inactive).
In the case of `CCn1c(=O)n(CC)c2cc(NC(=O)c3ccccc3Cl)ccc21`, the AC50 is reported as > 42 µM (inactive).
For `CC(C)(C)C(=O)Nc1ccc(C(=O)NCc2cccnc2)cc1`, the AC50 was > 42 µM (inactive).
`COc1ccc(OC)c(Cc2nnc(CCC(=O)NCc3ccsc3)o2)c1` was tested, and the AC50 was > 42 µM (inactive).
In the case of `Cc1cc(F)ccc1S(=O)(=O)Nc1ccccc1C(=O)Nc1ccc2[nH]c(=O)[nH]c2c1`, the AC50 is reported as > 42 µM (inactive).
With `CCOC(=O)C1CCCN(C(=O)c2cc(-c3ccc(F)cc3)nc3ccccc23)C1` (centres undefined) the AC50 was > 42 µM (inactive).
With `Cc1nn(C)c(C)c1/C=N/NC(=O)C(C)(C)Oc1ccc(Cl)cc1` the AC50 was > 42 µM (inactive).
With `CCn1cc(C(=O)NCc2ccccn2)c(=O)c2cc(F)c(N3CCN(C)CC3)cc21` the AC50 was > 42 µM (inactive).
`S=C(Nc1ccccc1Cl)N1CCOCC1` was tested, and the AC50 was > 42 µM (inactive).
In the case of `COc1cccc(C2CC(c3cccc(NS(C)(=O)=O)c3)=NN2C(=O)c2ccccc2)c1OC` (centres undefined), the AC50 is reported as > 42 µM (inactive).
For `CCOc1ccc(C(=O)Nc2ccc(N3CCN(C)CC3)cc2)cc1[N+](=O)[O-]`, the AC50 was > 42 µM (inactive).
For `CCCNC(=O)Cn1nc(C)n2c(cc3cc(F)ccc32)c1=O`, the AC50 was > 42 µM (inactive).
For `Cc1[nH]nc2c1C(c1cccs1)C1=C(CC(C)(C)CC1=O)N2` (centres undefined), the AC50 was > 42 µM (inactive).
With `CCOC(=O)C1CC(c2ccccc2)=NNC1=O` (centres undefined) the AC50 was > 42 µM (inactive).
For `N#Cc1cc([N+](=O)[O-])cnc1NCC(O)CO` (centres undefined), the AC50 was > 42 µM (inactive).
`Cc1cc([N+](=O)[O-])nn1CC(=O)NNC(=S)Nc1ccc([N+](=O)[O-])cc1` was tested, and the AC50 was > 21 µM (inactive).
